For one data set, the system named is SARS-CoV-2. Description: Antiviral activity against SARS-CoV-2 USA-WA1/2020 infected in African green monkey Vero 76 cells assessed as reduction in virus-induced cytopathic effect measured after 5 days by neutral red dye uptake analysis. The format is functional, organism-based. Particulars: Severe acute respiratory syndrome coronavirus 2, USA-WA1/2020, Vero 76, 120 h. For orientation: Protection from cytopathic effect is a common read-out in antiviral testing.

The nature of data set [1]: Bioavailability in CD-1 mouse at 20 mg/kg, ip measured for 24 hrs by LC-MS/MS analysis. Format: ADME, organism-based. Particulars: in vivo.

Peptide text beside a SMILES is read from it.

The EC50 is the concentration needed to bring the measured effect to its halfway point. For the compound `CC(C)(C)NC(=O)N[C@H](C(=O)N1C[C@H]2[C@@H]([C@H]1C(=O)NC(CC1CCC1)C(=O)C(N)=O)C2(C)C)C(C)(C)C` (some centres undefined) [BOCEPREVIR], the EC50 with SARS-CoV-2 is 0.49 µM. As to `CC(C)C[C@H](NC(=O)OCc1ccccc1)C(=O)N[C@@H](C[C@@H]1CCNC1=O)C(O)S(=O)(=O)O` (some centres undefined), the EC50 with SARS-CoV-2 was 0.49 µM. Still for that read-out and setting: under `CSCC[C@@H](C=O)NC(=O)[C@H](CC(C)C)NC(=O)[C@H](CC(C)C)NC(C)=O` (Ac-Leu-Leu-Met-aldehyde) stands 0.49 µM. In general, bioavailability refers to the share of a dose that reaches the circulation, judged against a reference dose that is usually intravenous. In data set [1], `O=C[C@H](C[C@@H]1CCNC1=O)NC(=O)[C@H](Cc1cccc(F)c1)NC(=O)c1cc2ccccc2[nH]1` gave a bioavailability of 80%.

These data come from ChEMBL document CHEMBL5223064, “A review of the latest research on Mpro targeting SARS-COV inhibitors” (RSC Med Chem, 2021).
